Reference: US20170283834A1, “Processes for Producing A Fermentation Product Using A Fermenting Organism” (Novozymes A/S, priority 2014, published 2017)
Values joined by “and” are separate entries in the source; they are usually repeats but may differ in a detail not shown here. Equal entries are not always repeated.

How the values were obtained:
[1] = tested on: Ethanol Red™; assay: Addition of benzoate, propionate and formate to ethanol fermentations (SSF of corn mash); format: cell-based, Saccharomyces cerevisiae; settings: for Glycerol pH 3.8 (w/v %) / Glycerol pH 5 (w/v %) / ETOH pH 3.8 (w/v %) / ETOH pH 5 (w/v %) / % Boost over no added acid: 54 hours; for % Boost over no added acid: ethanol; for % Change from no added acid: glycerol
Description: Industrially prepared corn mash was obtained from Lincolnland (Liquozyme™ SODS liquefaction).
After 15 minutes, the flasks were swirled, but no other agitation took place.
The pH after liquefaction was 4.9 and was adjusted to various pHs for SSF. […] Glucoamylase SA (“GSA”)/Cellulase VD (“CVD”) enzyme blend was dosed to each tube of mash at 110 μg EP GSA/gDS and 30 μg EP CVD/gDS. […] Benzoic acid was added in the range of 0-0.8 mM. Propionic and Formic acid were added in the range of 0-30 mM. All acid additions were done prior to inoculation (i.e., before exponential growth).
Each tube was processed for HPLC analysis by deactivation with 150 μL of 40% v/v H2SO4, vortexing, centrifuging at 1460×g for 10 minutes, and filtering through a 0.45 μm Whatman PP filter. All samples were processed without further dilution.

[2] = tested on: zein; assay: Relative activity assay of protease variants (zein micro titer plate); format: biochemical; settings: Table 5, upper part
In short: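 Yeast culture supernatants (3 days, 28 °C) incubated over 4 h or overnight on zein-agar plates (pH 4.5 acetate, 0.25 mM ZnSO4) at two temperatures. Zein turbidity read at A630; higher/lower-temperature activity ratio gives relative thermoactivity.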

[3] = acid Concentration 10 (mM), pH 3.8
[4] = acid Concentration 10 (mM), pH 5
[5] = acid Concentration 20 (mM), pH 3.8
[6] = acid Concentration 20 (mM), pH 5
[7] = acid Concentration 30 (mM), pH 3.8
[8] = acid Concentration 30 (mM), pH 5
[9] = acid Concentration 0.2 (mM), pH 3.8
[10] = acid Concentration 0.2 (mM), pH 5
[11] = acid Concentration 0.5 (mM), pH 3.8
[12] = acid Concentration 0.5 (mM), pH 5
[13] = acid Concentration 0.8 (mM), pH 3.8
[14] = acid Concentration 0.8 (mM), pH 5

O=CO [Formic Acid, formic acid]
effect of acid addition on fermentation performance [1]: boost
Glycerol pH 3.8 (w/v %) ([1]; Concentration 10 mM, pH 3.8): 1.078 w/v %
Glycerol pH 5 (w/v %) ([1]; Concentration 10 mM, pH 5): 1.175 w/v %
Glycerol pH 3.8 (w/v %) ([1]; Concentration 20 mM, pH 3.8): 1.070 w/v %
Glycerol pH 5 (w/v %) ([1]; Concentration 20 mM, pH 5): 1.117 w/v %
Glycerol pH 3.8 (w/v %) ([1]; Concentration 30 mM, pH 3.8): 0.966 w/v %
Glycerol pH 5 (w/v %) ([1]; Concentration 30 mM, pH 5): 1.111 w/v %
ETOH pH 3.8 (w/v %) [1, 3]: 13.69 w/v %
ETOH pH 5 (w/v %) [1, 4]: 13.1 w/v %
ETOH pH 3.8 (w/v %) [1, 5]: 13.41 w/v %
ETOH pH 5 (w/v %) [1, 6]: 13.22 w/v %
ETOH pH 3.8 (w/v %) [1, 7]: 6.458 w/v %
ETOH pH 5 (w/v %) [1, 8]: 13.2 w/v %
% Boost over no added acid [1, 3]: 2.45%
% Boost over no added acid [1, 4]: 0.94%
% Boost over no added acid [1, 5]: 0.31%
% Boost over no added acid [1, 6]: 1.84%
% Boost over no added acid [1, 7]: −51.69%
% Boost over no added acid [1, 8]: 1.70%
% Change from no added acid ([1]; Concentration 10 mM, pH 3.8): −17.68%
% Change from no added acid ([1]; Concentration 10 mM, pH 5): −12.49%
% Change from no added acid ([1]; Concentration 20 mM, pH 3.8): −18.24%
% Change from no added acid ([1]; Concentration 20 mM, pH 5): −16.81%
% Change from no added acid ([1]; Concentration 30 mM, pH 3.8): −26.19%
% Change from no added acid ([1]; Concentration 30 mM, pH 5): −17.26%

CCC(=O)O [Propionic Acid, propionic acid]
Glycerol pH 3.8 (w/v %) ([1]; Concentration 10 mM, pH 3.8): 0.985 w/v %
Glycerol pH 5 (w/v %) ([1]; Concentration 10 mM, pH 5): 1.017 w/v %
Glycerol pH 3.8 (w/v %) ([1]; Concentration 20 mM, pH 3.8): 0.896 w/v %
Glycerol pH 5 (w/v %) ([1]; Concentration 20 mM, pH 5): 0.927 w/v %
Glycerol pH 3.8 (w/v %) ([1]; Concentration 30 mM, pH 3.8): 0.654 w/v %
Glycerol pH 5 (w/v %) ([1]; Concentration 30 mM, pH 5): 0.874 w/v %
ETOH pH 3.8 (w/v %) [1, 3]: 13.2 w/v %
ETOH pH 5 (w/v %) [1, 4]: 13.26 w/v %
ETOH pH 3.8 (w/v %) [1, 5]: 11.67 w/v %
ETOH pH 5 (w/v %) [1, 6]: 12.87 w/v %
ETOH pH 3.8 (w/v %) [1, 7]: 3.064 w/v %
ETOH pH 5 (w/v %) [1, 8]: 11.8064 w/v %
% Boost over no added acid [1, 3]: −1.27%
% Boost over no added acid [1, 4]: 2.2% and 2.21%
% Boost over no added acid [1, 5]: −12.7%
% Boost over no added acid [1, 6]: −0.84%
% Boost over no added acid [1, 7]: −77.08%
% Boost over no added acid [1, 8]: −9.03%
% Change from no added acid ([1]; Concentration 10 mM, pH 3.8): −24.78%
% Change from no added acid ([1]; Concentration 10 mM, pH 5): −24.26%
% Change from no added acid ([1]; Concentration 20 mM, pH 3.8): −31.55%
% Change from no added acid ([1]; Concentration 20 mM, pH 5): −30.95%
% Change from no added acid ([1]; Concentration 30 mM, pH 3.8): −50.02%
% Change from no added acid ([1]; Concentration 30 mM, pH 5): −34.94%
effect on ethanol production at pH 3.8 ([1]; pH 3.8): negative effect

O=C(O)c1ccccc1 [Benzoic Acid, benzoic acid]
effect of acid addition on fermentation performance [1]: increases fermentation performance
Glycerol pH 3.8 (w/v %) ([1]; Concentration 0.2 mM, pH 3.8): 1.159 w/v %
Glycerol pH 5 (w/v %) ([1]; Concentration 0.2 mM, pH 5): 1.160 w/v %
Glycerol pH 3.8 (w/v %) ([1]; Concentration 0.5 mM, pH 3.8): 1.091 w/v %
Glycerol pH 5 (w/v %) ([1]; Concentration 0.5 mM, pH 5): 1.127 w/v %
Glycerol pH 3.8 (w/v %) ([1]; Concentration 0.8 mM, pH 3.8): 1.041 w/v %
Glycerol pH 5 (w/v %) ([1]; Concentration 0.8 mM, pH 5): 1.093 w/v %
ETOH pH 3.8 (w/v %) [1, 9]: 13.73 w/v %
ETOH pH 5 (w/v %) [1, 10]: 13.01 w/v %
ETOH pH 3.8 (w/v %) [1, 11]: 13.6785 w/v %
ETOH pH 5 (w/v %) [1, 12]: 13.23 w/v %
ETOH pH 3.8 (w/v %) [1, 13]: 13.35 w/v %
ETOH pH 5 (w/v %) [1, 14]: 13.39 w/v %
% Boost over no added acid [1, 9]: 2.70%
% Boost over no added acid [1, 10]: 0.27%
% Boost over no added acid [1, 11]: 2.33%
% Boost over no added acid [1, 12]: 1.96%
% Boost over no added acid [1, 13]: −0.12%
% Boost over no added acid [1, 14]: 3.20%
% Change from no added acid ([1]; Concentration 0.2 mM, pH 3.8): −11.47%
% Change from no added acid ([1]; Concentration 0.2 mM, pH 5): −13.60%
% Change from no added acid ([1]; Concentration 0.5 mM, pH 3.8): −16.65%
% Change from no added acid ([1]; Concentration 0.5 mM, pH 5): −16.08%
% Change from no added acid ([1]; Concentration 0.8 mM, pH 3.8): −20.45%
% Change from no added acid ([1]; Concentration 0.8 mM, pH 5): −18.58%

B1: JTP134: protease variant of SEQ ID NO: 3: D79L Y82F S87P A112P D142L (protein, listed as Thermoascus aurantiacus)
chain: MRLVASLTALVALSVPVFPAAVNVKRASSYLEITLSQVSNTLIKAVVQNTGSDELSFVHLNFFKDPAPVKKVSVYRDGSEVQFEGILSRYKSTGLSRDAFTYLAPGESVEDVFDIASTYDLTSGGPVTIRTEGVVPYATANSTDIAGYISYSSNVLTIDVDGAAAATVSKAITPLDRRTRISSCSGSRQSALTTALRNAASLANAAADAAQSGSASKFSEYFKTTSSSTRQTVAARLRAVAREASSSSSGATTYYCLDPFGYCSPNVLAYTLPSYNIIANCDIFYTYLPPLTSTCHAQDQATTALHEFTHAPGVYSPGTLDLAYGYQAAMGLSSSQAVMNADTYALYANAIYLGC
Relative activity 80° C./70° C. [2]: 40%
